Reference: patent publication US8912162B2, “Parenteral formulations of elacytarabine derivatives” (Clavis Pharma ASA, priority 2010, dated 2014)

Assays:
[1] = test system: acute myeloid leukemia (AML); experiment: Phase II study of single agent elacytarabine as second salvage therapy; format: in vivo, patients
Protocol: The formulation described in example 1 was administered to 61 patients in a phase II study of single agent elacytarabine as second salvage therapy for acute myeloid leukemia (AML). […] The response rate was 15%. The median overall survival was 5.3 months versus 1.5 months in the historical control. The median survival for the responders was 13.5 months. The 6 month survival rate was 44%.

[2] = Solubility of elacytarabine in water, phosphate buffer and soybean oil based emulsions; format: physicochemical
Description: Nevertheless, formulation of a therapeutically effective amount of the poorly soluble derivatives of formula (I) into a pharmaceutical composition suitable for parenteral administration represents a problem. For the sake of intravenous administration of the said derivatives, the composition of the excipients should be selected so that the said derivatives are solubilised. The cytarabine derivatives of formula (I) are amphiphilic and have poor solubility both in water and in oils. This limits the choice of potential excipients that can solubilise them.

[3] = test system: Cis-platin resistant cells (NHIK 3025/DDP); conditions: found earlier; cited from earlier work
[4] = Plasma concentration of elacytarabine, Ara-C and Ara-U in patients (FIG. 2); format: in vivo; conditions: average values for 61 patients
Description: FIG. 2: Plasma concentration of elacytarabine, Ara-C and Ara-U (deamination metabolite of Ara-C), average values for 61 patients.

[5] = test system: MDR resistant cells (A549); conditions: A549, found earlier; cited from earlier work

With `CCCCCCCC/C=C/CCCCCCCC(=O)OC[C@H]1O[C@@H](n2ccc(N)nc2=O)[C@@H](O)[C@@H]1O` [elacytarabine, 5′-O-(trans-9″-octadecenoyl)-1-β-D-arabinofuranosylcytosine] the tolerability ([1]; also by elderly patients) was “well tolerated”, the side effects ([1]; phase II AML patients) was “predictable and manageable” and the solubility ([2]; aqueous buffer, phosphate buffer pH 7.4 at 25° C.) was less than 1 µg/mL. The solubility ([2]; deionised water, 25 °C, water) was less than 0.1 µg/mL, the “dissolution in soybean oil based emulsions” value ([2]; earlier formulation studies) was “did not dissolve appropriately” and the “effect against resistant cells compared with corresponding non-resistant cell line” value [3] was “same effect”. For the same molecule, the “exposure to elacytarabine compared to cytarabine (Ara-C)” value [4] was no less than 10 fold and the “effect against resistant cells compared with corresponding non-resistant cell line” value [5] was “same effect”.
